Data set [1] addresses tubulin (purified brain tubulin) (Sus scrofa, UniProt P02550+P02554). In words: In vitro tubulin polymerization assay (fluorescence). The data set is classed as biochemical. Particulars: read-out: % Inhibition of Tubulin Polymerization at 10 µM. On the procedure:
The α and β tubulin subunits are recognized by heterodimers and self-assemble into a stable microtubule in a time-dependent manner. Assessment of the inhibitory effect of new pyrazolic chalcone conjugates on tubulin polymerization was also carried out. The progression of tubulin polymerization was thus examined by monitoring the increase in the fluorescence intensity at 450 nm (excitation wavelength of 360 nm) in a 384-plate for 1 h at 37 °C with and without the conjugate at 10 µM concentration. CA-4 (6 µM) and Vincristine (3 µM) were used as the positive control, whereas paclitaxel (3 µM) was used as the negative control.
Tubulin polymerization is a dynamic process by enhancement of fluorescence intensity due to the combination of a fluorescent reporter into the microtubules as polymerization occurs. Tubulin polymerization was performed by using a purified brain tubulin polymerization kit purchased from Cytoskeleton (BK110P, Denver, CO, USA). The tubulin polymerization assay was monitored by the increase in fluorescence over a 60 min period at 37 °C, with excitation at 360 nm and emission at 450 nm. The final buffer concentration for tubulin polymerization contained 80 mM PIPES, pH 6.9; 2 mM MgCl2; 0.5 mM EGTA; […]; and 15% glycerol. Firstly, 5 µL of the test compounds (final concentration of 10 µM) was added and then warmed to 37 °C for 1 min. The reaction was initiated by adding 50 µL of the tubulin reaction mix as specified for 6 min.

Data set [2] deals with PC-3 (prostate cancer cell line). The data set can be described thus: In vitro cytotoxicity, MTT assay, PC-3. Particulars: Homo sapiens; MTT, 48 h, prostate cancer; read-out: IC50 PC3. The class given is cell-based. On the procedure:
(§1) The resultant compounds were tested for their in vitro cytotoxic activity by MTT assay against breast (MCF-7), cervical (SiHa), and prostate (PC-3) cancer cell lines, and the human embryonic kidney cell line (HEK). […] Subsequently, SAR studies were done by investigating the effect of substituents on cytotoxic activity.
(§2) Human cervical cancer cell line SiHa, human breast cancer cell line MCF-7, human prostate cancer cell line PC-3, and human embryonic kidney HEK-293 cells were procured from the National Centre for Cell Sciences (NCCS) Pune, India. In this experiment, antibiotics (100 units/mL penicillin and 100 mg L^−1 streptomycin were grown as a monolayer culture in Dulbecco’s modified Eagle’s medium containing 10% fetal bovine serum) were cultured in a humidified atmosphere of 5% CO2 at 37 °C in T-75 flasks and subcultured twice a week.
(§3) The cytotoxic effects of the selected compounds were evaluated by MTT assay on the above-mentioned cell lines. Initially, 2 × 10^4 cells/well were seeded into 96-well plates (150 µL/well) in triplicates and allowed to grow. The cells were incubated for 24 h and subsequently treated with varying concentrations of the compounds. After 48 h, the cells were incubated with 20 μL of MTT (5 mg/mL in PBS) in a fresh medium for 4 h at 37 °C. MTT is a metabolic substrate that is reduced to give formazan crystals, which were solubilized in DMSO (150 µL/well) and analyzed by reading the absorbance at 540 nm after 15 min of the incubation period on the iMark Microplate Reader (Bio-Rad). Percentage viability and IC50 values were used to determine the relative absorbance of treated versus control (untreated) cells.

Data set [3] has as its system HEK-293 (human embryonic kidney cells). The data set can be described thus: In vitro cytotoxicity, MTT assay, HEK-293 normal cells. The class given is cell-based. As to conditions: HEK293; MTT, 48 h, human normal cell line; read-out: IC50 HEK-293. On the procedure:
as §1, §2, §3

Data set [4] deals with SiHa (cervical cancer cell line). In words: In vitro cytotoxicity, MTT assay, SiHa. Particulars: Homo sapiens, MTT, 48 h, cervical cancer, read-out: IC50 SiHa. The data set is classed as cell-based. Here is the method:
as §1, §2, §3

Data set [5] deals with MCF-7 (breast cancer cell line). The data set can be described thus: In vitro cytotoxicity, MTT assay, MCF-7. The class given is cell-based, human. As to conditions: Homo sapiens, MCF7; MTT, 48 h, breast cancer; read-out: IC50 MCF-7. Here is the method: as §1, §2, §3

tubulin (purified brain tubulin), sequence (P02550 whole entry): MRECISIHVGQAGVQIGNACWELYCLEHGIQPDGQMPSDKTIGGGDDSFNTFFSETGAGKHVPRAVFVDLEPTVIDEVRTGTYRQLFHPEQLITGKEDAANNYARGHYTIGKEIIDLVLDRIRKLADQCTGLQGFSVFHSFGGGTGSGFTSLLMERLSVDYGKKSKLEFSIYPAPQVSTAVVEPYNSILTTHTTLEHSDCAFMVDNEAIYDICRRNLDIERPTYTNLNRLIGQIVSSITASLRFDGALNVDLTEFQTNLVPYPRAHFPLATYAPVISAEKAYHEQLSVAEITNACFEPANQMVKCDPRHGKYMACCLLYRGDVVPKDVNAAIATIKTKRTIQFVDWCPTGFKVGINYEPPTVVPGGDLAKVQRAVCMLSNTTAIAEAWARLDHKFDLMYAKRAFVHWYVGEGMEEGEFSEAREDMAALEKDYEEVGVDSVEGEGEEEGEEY
tubulin (purified brain tubulin), sequence (P02554 whole entry): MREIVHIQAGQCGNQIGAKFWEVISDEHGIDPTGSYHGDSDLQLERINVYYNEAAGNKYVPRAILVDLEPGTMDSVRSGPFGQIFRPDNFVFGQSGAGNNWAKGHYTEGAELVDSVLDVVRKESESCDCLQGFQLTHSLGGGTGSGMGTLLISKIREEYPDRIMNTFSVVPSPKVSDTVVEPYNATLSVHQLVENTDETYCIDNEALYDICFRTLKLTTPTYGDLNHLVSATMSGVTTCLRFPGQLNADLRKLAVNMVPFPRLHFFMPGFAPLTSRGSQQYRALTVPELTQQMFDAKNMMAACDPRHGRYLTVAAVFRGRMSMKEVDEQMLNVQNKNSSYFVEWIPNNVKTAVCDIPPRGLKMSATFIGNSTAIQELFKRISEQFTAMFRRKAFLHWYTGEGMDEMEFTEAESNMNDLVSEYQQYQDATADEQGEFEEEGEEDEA

The compound `COc1ccc(C(=O)/C=C/c2cn(-c3ccccc3)nc2-c2ccc(OCc3ccccc3)cc2)c(OC)c1` [Compound 5p, (E)-3-(3-(4-(benzyloxy)phenyl)-1-phenyl-1H-pyrazol-4-yl)-1-(2,4-dimethoxyphenyl)prop-2-en-1-one] displayed a melting point of 226 to 228 °C. Besides, the inhibition at 10 µM in data set [1] turned out to be 51.1%. Besides, in data set [2], the IC50 stood at 6.52 ± 1.23 µM. Moreover, in data set [3], the IC50 was > 50 µM. In data set [4], the IC50 came to 4.98 ± 0.54 µM. Moreover, in data set [5], the IC50 was determined as 3.45 ± 1.28 µM.
`O=C(/C=C/c1cn(-c2ccccc2)nc1-c1ccc(OCc2ccccc2)cc1)c1ccc(C(F)(F)F)cc1` [Compound 5r, (E)-3-(3-(4-(benzyloxy)phenyl)-1-phenyl-1H-pyrazol-4-yl)-1-(4-(trifluoromethyl)Phenyl)prop-2-en-1-one] returned a melting point of 186 to 188 °C. In data set [1], the inhibition at 10 µM turned out to be 31.5%. Moreover, the IC50 in data set [2] is > 50 µM. In data set [3], the IC50 was 38.3 ± 1.72 µM. Moreover, in data set [4], the IC50 is > 50 µM. For the same compound, the IC50 in data set [5] turned out to be 14.8 ± 2.76 µM.

For the origin of these results see paper PMC8954831, “Design, Synthesis, Molecular Docking, and Biological Evaluation of Pyrazole Hybrid Chalcone Conjugates as Potential Anticancer Agents and Tubulin Polymerization Inhibitors” (Pharmaceuticals, 2022).
